Consider two molecules from article PMC8617627, “Novel DYRK1A Inhibitor Rescues Learning and Memory Deficits in a Mouse Model of Down Syndrome” (Pharmaceuticals, 2021).

Read-outs that look alike come from different tables or passages of the source.

Assay in all cases: Kinase profile (33P ATP filter binding)
Format in all cases: biochemical

One assay has as its target RSK1 (Homo sapiens, UniProt Q15418). As to conditions: read-out: Remaining protein kinase activity.
A further assay concerns the target TIE2 (Homo sapiens, UniProt Q02763). As to conditions: read-out: Remaining protein kinase activity.
The target of the next assay is MST3 (Homo sapiens, UniProt Q9Y6E0).
Chain of MST3 (Q9Y6E0 whole entry): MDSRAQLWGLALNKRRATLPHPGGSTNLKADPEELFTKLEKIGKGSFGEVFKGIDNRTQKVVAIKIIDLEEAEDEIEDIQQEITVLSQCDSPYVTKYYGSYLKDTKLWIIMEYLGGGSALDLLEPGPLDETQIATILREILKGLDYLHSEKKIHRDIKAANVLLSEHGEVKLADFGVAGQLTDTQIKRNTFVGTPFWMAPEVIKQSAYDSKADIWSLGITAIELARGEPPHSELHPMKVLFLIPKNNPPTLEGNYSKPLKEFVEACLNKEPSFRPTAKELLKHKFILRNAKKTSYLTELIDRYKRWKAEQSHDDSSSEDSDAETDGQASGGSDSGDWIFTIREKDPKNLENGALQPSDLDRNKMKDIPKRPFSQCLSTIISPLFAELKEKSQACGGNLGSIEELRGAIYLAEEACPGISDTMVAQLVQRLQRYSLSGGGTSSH
Another assay concerns the target T1, EPH-B1 (Homo sapiens, UniProt P54762).
T1 sequence (P54762 18-984): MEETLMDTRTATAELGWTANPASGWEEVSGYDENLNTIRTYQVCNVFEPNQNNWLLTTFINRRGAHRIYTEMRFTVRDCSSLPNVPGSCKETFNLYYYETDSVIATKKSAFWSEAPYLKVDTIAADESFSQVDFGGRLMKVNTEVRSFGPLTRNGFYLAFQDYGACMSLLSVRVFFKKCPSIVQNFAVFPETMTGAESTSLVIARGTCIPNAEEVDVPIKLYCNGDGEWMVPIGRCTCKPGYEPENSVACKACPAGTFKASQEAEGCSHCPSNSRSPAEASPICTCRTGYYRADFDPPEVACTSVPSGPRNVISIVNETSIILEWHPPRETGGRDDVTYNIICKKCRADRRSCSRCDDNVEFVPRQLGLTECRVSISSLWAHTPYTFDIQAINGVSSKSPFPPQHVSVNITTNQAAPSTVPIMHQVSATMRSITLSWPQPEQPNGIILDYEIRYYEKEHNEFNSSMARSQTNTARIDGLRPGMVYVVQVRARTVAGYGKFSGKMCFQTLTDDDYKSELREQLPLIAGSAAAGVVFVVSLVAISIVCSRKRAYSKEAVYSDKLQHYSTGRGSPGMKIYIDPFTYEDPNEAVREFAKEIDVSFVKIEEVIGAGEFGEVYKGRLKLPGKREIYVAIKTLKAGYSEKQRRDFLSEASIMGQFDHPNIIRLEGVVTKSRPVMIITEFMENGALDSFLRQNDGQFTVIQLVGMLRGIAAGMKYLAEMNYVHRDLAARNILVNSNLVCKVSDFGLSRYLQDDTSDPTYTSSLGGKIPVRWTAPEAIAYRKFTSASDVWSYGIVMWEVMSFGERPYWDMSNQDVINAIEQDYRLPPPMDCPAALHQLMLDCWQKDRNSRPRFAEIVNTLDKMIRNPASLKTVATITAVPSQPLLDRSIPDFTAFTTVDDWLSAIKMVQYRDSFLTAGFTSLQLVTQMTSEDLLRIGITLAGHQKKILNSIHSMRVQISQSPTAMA
To be noted: read-out: Remaining protein kinase activity.

A further assay addresses PIM2 (Homo sapiens, UniProt Q9P1W9). To be noted: read-out: Remaining protein kinase activity.
For another assay, the target named is T2, DDR2 (Homo sapiens, UniProt Q16832).
T2 sequence (Q16832 22-855): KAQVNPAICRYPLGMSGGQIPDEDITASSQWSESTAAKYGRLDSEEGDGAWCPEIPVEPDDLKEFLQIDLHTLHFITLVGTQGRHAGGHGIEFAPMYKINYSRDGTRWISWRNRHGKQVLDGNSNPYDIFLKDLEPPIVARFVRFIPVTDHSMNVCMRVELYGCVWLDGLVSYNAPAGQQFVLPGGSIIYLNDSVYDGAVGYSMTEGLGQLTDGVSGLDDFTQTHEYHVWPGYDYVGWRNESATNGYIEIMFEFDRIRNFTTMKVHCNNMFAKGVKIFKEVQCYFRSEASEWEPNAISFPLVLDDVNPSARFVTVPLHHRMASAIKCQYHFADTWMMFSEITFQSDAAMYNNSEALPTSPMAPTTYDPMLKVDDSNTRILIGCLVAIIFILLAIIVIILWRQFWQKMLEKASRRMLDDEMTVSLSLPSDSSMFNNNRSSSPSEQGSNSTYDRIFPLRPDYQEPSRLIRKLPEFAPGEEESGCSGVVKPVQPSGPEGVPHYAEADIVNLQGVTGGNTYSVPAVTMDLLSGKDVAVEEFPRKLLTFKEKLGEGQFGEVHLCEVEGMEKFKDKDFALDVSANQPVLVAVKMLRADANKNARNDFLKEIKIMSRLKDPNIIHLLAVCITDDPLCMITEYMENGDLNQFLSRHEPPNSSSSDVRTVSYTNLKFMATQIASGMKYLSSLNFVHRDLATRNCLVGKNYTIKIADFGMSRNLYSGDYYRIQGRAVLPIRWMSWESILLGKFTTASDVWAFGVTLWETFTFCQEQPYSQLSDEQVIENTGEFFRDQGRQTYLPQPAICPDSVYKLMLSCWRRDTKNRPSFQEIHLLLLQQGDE
To be noted: read-out: Remaining protein kinase activity.

A further assay deals with HIPK3 (Homo sapiens, UniProt Q9H422). To be noted: read-out: Remaining protein kinase activity.
Chain of HIPK3 (Q9H422 whole entry): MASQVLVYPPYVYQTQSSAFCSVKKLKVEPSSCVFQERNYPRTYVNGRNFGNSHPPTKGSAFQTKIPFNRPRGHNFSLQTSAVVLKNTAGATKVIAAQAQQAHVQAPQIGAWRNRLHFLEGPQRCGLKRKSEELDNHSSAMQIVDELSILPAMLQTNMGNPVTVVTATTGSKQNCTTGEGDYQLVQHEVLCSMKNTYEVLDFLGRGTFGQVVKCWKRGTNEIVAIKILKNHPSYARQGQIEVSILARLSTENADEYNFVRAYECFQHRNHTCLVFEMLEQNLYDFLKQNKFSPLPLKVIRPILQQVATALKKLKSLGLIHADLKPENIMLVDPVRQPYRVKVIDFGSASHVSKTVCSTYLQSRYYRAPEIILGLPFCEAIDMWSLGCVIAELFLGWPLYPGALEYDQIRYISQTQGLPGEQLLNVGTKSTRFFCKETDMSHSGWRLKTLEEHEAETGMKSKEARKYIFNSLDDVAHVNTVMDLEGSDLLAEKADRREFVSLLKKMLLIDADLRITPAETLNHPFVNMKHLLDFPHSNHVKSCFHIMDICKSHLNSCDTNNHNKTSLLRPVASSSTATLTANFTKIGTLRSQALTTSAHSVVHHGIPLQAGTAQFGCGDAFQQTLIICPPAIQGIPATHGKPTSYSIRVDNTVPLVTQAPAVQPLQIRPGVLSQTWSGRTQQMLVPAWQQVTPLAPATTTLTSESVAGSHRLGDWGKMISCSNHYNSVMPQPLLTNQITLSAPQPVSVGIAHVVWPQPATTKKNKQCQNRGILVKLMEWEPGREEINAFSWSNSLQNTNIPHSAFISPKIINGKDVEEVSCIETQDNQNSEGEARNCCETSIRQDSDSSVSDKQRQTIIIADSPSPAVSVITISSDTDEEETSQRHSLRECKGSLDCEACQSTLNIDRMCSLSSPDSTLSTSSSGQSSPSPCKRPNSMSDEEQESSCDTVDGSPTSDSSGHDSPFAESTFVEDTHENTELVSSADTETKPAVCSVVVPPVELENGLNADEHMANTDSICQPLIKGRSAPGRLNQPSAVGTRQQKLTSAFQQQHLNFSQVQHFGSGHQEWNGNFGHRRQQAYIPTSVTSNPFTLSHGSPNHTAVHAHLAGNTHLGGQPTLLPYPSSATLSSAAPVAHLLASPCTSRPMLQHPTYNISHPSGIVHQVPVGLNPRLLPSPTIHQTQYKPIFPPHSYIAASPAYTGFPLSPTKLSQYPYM
The target in a further assay is MKK1 (Homo sapiens, UniProt Q02750). To be noted: read-out: Remaining protein kinase activity.
The target of the next assay is PAK5 (Homo sapiens, UniProt Q9P286). To be noted: read-out: Remaining protein kinase activity.
The target of a further assay is PAK2 (Homo sapiens, UniProt Q13177). To be noted: read-out: Remaining protein kinase activity.
The next assay concerns the target ROCK 2 (Homo sapiens, UniProt O75116). To be noted: read-out: Remaining protein kinase activity.

Chain of TIE2 (Q02763 23-1124): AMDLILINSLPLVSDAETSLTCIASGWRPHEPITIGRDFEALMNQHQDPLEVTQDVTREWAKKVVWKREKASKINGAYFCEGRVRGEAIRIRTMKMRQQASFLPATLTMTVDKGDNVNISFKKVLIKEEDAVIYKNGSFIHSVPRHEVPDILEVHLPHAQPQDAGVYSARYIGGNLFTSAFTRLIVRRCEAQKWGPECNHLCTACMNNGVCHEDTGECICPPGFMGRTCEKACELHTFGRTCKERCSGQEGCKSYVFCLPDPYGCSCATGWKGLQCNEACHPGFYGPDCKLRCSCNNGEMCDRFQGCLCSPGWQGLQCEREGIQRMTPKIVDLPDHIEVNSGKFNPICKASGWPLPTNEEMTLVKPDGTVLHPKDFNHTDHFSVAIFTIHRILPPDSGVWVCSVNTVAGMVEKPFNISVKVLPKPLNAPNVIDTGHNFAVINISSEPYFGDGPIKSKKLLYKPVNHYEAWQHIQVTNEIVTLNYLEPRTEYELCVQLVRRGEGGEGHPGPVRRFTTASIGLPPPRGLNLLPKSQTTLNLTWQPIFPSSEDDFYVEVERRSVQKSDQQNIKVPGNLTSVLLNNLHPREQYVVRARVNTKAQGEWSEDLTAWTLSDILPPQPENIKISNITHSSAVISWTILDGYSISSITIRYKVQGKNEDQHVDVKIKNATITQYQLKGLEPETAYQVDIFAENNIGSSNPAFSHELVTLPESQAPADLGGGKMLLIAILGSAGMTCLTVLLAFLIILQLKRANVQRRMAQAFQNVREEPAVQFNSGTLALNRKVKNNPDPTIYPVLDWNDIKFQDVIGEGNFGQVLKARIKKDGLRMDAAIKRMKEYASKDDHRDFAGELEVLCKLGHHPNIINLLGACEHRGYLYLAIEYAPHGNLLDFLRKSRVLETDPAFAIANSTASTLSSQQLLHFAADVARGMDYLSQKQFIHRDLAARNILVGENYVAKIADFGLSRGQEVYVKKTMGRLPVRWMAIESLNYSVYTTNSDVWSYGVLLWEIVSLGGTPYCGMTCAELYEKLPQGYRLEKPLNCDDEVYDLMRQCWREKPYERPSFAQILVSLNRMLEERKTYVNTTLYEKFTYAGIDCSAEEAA
Chain of RSK1 (Q15418 whole entry, species assumed): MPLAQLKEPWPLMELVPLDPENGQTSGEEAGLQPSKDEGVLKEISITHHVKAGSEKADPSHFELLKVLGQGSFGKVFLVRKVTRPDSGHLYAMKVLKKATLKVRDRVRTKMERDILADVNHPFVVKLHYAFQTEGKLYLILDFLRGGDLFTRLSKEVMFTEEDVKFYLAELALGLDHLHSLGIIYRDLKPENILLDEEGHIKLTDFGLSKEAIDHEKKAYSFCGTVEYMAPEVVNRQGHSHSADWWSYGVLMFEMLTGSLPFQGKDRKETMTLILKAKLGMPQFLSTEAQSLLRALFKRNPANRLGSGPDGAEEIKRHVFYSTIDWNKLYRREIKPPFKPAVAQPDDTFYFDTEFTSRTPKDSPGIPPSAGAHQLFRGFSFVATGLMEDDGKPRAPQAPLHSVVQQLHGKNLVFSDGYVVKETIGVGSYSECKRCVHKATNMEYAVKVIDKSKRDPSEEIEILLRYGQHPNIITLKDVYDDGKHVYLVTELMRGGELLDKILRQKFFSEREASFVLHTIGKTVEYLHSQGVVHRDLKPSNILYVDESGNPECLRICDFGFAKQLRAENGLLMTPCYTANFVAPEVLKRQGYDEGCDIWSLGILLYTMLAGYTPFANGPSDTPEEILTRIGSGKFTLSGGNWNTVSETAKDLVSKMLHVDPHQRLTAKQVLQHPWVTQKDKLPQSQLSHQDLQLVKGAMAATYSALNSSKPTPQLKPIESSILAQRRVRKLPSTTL
Chain of ROCK 2 (O75116 whole entry, species assumed): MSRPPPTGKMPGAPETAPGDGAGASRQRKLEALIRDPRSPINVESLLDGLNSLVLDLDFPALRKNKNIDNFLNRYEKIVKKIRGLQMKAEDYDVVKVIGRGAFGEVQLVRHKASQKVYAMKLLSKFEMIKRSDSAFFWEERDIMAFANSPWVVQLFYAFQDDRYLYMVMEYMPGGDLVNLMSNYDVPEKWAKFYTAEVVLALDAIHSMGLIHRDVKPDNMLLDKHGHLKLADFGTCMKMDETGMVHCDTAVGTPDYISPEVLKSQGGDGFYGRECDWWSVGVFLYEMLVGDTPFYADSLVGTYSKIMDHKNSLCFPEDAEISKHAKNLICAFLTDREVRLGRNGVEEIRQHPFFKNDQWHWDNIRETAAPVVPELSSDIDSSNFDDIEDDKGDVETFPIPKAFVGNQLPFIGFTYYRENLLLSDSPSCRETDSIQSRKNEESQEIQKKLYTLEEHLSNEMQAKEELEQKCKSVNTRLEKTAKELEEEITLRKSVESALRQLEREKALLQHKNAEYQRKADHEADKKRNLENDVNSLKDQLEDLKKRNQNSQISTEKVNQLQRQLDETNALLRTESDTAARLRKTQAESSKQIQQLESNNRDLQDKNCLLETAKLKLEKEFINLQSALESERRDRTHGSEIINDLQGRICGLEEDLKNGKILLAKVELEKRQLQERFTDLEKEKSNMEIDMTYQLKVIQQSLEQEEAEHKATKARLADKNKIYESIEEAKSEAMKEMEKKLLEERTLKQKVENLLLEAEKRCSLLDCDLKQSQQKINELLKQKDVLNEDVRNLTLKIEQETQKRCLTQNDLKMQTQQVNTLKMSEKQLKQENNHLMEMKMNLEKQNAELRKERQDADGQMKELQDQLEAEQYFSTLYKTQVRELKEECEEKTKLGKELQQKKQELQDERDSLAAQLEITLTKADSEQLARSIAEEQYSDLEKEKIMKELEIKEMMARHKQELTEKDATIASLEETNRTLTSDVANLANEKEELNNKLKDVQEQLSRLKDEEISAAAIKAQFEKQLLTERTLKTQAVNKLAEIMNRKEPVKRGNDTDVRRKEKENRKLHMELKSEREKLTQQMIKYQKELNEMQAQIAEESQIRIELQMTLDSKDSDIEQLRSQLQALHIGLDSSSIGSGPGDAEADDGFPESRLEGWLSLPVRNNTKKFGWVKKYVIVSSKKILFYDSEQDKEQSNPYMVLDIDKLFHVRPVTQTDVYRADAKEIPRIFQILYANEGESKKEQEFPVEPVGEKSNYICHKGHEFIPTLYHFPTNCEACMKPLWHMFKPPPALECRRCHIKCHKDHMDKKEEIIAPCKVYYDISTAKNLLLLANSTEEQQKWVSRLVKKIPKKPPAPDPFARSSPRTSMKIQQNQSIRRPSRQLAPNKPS

For orientation: remaining activity means the signal under treatment as a percentage of the control signal. On to `COc1ccc2sc(-c3cncc(N)c3)nc2c1` [compound 1, 5-(5-Methoxybenzo[d]thiazol-2-yl)pyridin-3-amine], for which the remaining activity at 1 µM was found to be 99% at RSK1 (RSK1, 1 μM); 135% on TIE2 (TIE2, 1 μM); 122% at EPH-B1 (EPH-B1, 1 μM); 110% at PIM2 (PIM2, 1 μM); 107% at DDR2 (DDR2, 1 μM); 120% at HIPK3 (HIPK3, 1 μM). Also, the remaining activity at 1 µM at MKK1 (MKK1, 1 μM) was found to be 101%; at PAK5 (PAK5, 1 μM), 111%; on PAK2 (PAK2, 1 μM), 110%; on ROCK 2 (ROCK 2, 1 μM), 108%. Also, the remaining activity at 100 µM at RSK1 (RSK1, 100 μM) turned out to be 42%; at TIE2 (TIE2, 100 μM), 85%; at EPH-B1 (EPH-B1, 100 μM), 91%; on PIM2 (PIM2, 100 μM) it was 36%; on DDR2 (DDR2, 100 μM), 49%; at HIPK3 (HIPK3, 100 μM), 28%. Also, the remaining activity at 100 µM is 84% on MKK1 (MKK1, 100 μM); 70% at PAK5 (PAK5, 100 μM); 103% at PAK2 (PAK2, 100 μM); 5% at ROCK 2 (ROCK 2, 100 μM). Moreover, the “Remaining protein kinase activity” value at MST3 (1 μM) turned out to be 114%; on MST3 (100 μM), 96%.

On to `COc1ccc2sc(-c3cncc(NC(C)=O)c3)nc2c1` [PST-001, N-(5-(5-Methoxybenzo[d]thiazol-2-yl)pyridin-3-yl)acetamide], for which the remaining activity at 1 µM came out at 99% at RSK1; 129% on TIE2; 117% at EPH-B1; 120% on PIM2; 98% at DDR2; 123% at HIPK3. In addition, the remaining activity at 1 µM at MKK1 is 117%; on PAK5, 113%; on PAK2 it was 114%; at ROCK 2 it was 110%. The remaining activity at 100 µM stood at 88% at RSK1; 133% at TIE2; 108% on EPH-B1; 102% on PIM2; 80% on DDR2; 100% at HIPK3. The remaining activity at 100 µM is 135% on MKK1, 129% on PAK5, 122% at PAK2 and 64% on ROCK 2. For the same molecule, the results for the “Remaining protein kinase activity” value at MST3 (1 μM) and on MST3 (100 μM) were 118% and 113%, respectively.
